This is an account of results in publication PMC4995097, “Talin-KANK1 interaction controls the recruitment of cortical microtubule stabilizing complexes to focal adhesions” (eLife, 2016).

The target of one assay is T1, R7-R8 S1641E (Mus musculus, UniProt P26039, S1641E).
T1 construct: His-tag (cleaved yes); made in house; host or cells: E. coli BL21(DE3)
Briefly: Fluorescence polarization binding to talin1 R7-R8 S1641E. Set-up: species or system murine. The note with it: 0.5 μM BODIPY TMR-labeled peptide, PBS, room temperature, ± SE, triplicate, panel G, read-out: Dissociation constant (Kd), S1641E. An excerpt: The cDNAs encoding murine talin1 residues 1357–1653 (R7-R8), 1357–1653 Δ1454–1586 (R7) and 1461–1580 (R8) were synthesized by PCR using a mouse talin1 cDNA as template and cloned into the expression vector pet151-TOPO (Invitrogen) ([Gingras et al., 2010]). Talin mutants were synthesized by GeneArt. Talin polypeptides were expressed in E. coli BL21(DE3) cultured either in LB for unlabeled protein, or in M9 minimal medium for the preparation of isotopically labeled samples for NMR. Recombinant His-tagged talin polypeptides were purified by nickel-affinity chromatography following standard procedures. The His-tag was removed by cleavage with AcTEV protease (Invitrogen), and the proteins were further purified by anion-exchange. Protein concentrations were determined using their respective extinction coefficient at 280 nm.
KANK peptides with a C-terminal cysteine residue were synthesized by Biomatik (USA):
Fluorescence Polarization was carried out on KANK peptides with a carboxy terminal cysteine. […]
The Fluorescence Polarization assay was carried out on a black 96well plate (Nunc). […] Fluorescence Polarization measurements were recorded on a BMGLabTech CLARIOstar plate reader at room temperature and analyzed using GraphPad Prism (version 6.07). Kd values were calculated with a nonlinear curve fitting using a one site total and non-specific binding model.

The target of a further assay is T2, Talin1 R7-R8 (1357–1659) (Mus musculus, UniProt P26039).
T2 construct: peptides to Talin1 R7-R8 (1357–1659) was measured using a Fluorescence Polarization assay; His-tag (cleaved yes); made in house; host or cells: E. coli BL21(DE3)
Briefly: Fluorescence polarization binding of BODIPY-labeled KANK peptides to talin1 R7-R8. Set-up: species or system murine. The note with it: Fluorescence polarization; 0.5 μM BODIPY TMR-labeled peptide, increasing talin R7-R8, PBS, room temperature; one site total and non-specific binding; ± SE, triplicate; panel F; read-out: Dissociation constant (Kd), Fig. 2F. On the technique in general: Fluorescence polarisation rises when a labelled molecule tumbles more slowly, as on binding a larger partner.

Assay [1] deals with focal adhesions in HeLa cells. Briefly: TIRFM localization of GFP-tagged KANK1 constructs relative to focal adhesions. It is filed as cell-based, human. The note with it: live HeLa cells with mCherry- or TagRFP-paxillin. How it is done: HeLa Kyoto cell line was described previously ([Lansbergen et al., 2006]; [Mimori-Kiyosue et al., 2005]). HEK293T cells were purchased from ATCC; culture and transfection of DNA and siRNA into these cell lines was performed as previously described ([van der Vaart et al., 2013]). HaCaT cells were purchased at Cell Line Service (Eppelheim, Germany) and cultured according to manufacturer’s instructions. The cell lines were routinely checked for mycoplasma contamination using LT07-518 Mycoalert assay (Lonza, Switzerland).The identity of the cell lines was monitored by immunofluorescence-staining-based analysis with multiple markers. Blebbistatin was purchased from Enzo Life Sciences and used at 50 μM. Serum starvation in HeLa cells was done for 48 hr and focal adhesion assembly was stimulated by incubation with fetal calf serum-containing medium with or without blebbistatin for 2 hr. ROCK1 inhibitor Y-27632 was purchased at Sigma-Aldrich and used at 1 or 10 μM. Double stable HeLa cell line expressing GFP-KANK1 and TagRFP-paxillin was made by viral infection. We used a pLVIN-TagRFP-paxillin-based lentivirus and a pQC-GFP-KANK1-based retrovirus packaged in HEK293T cells using respectively Lenti-X HTX packaging and pCL-Ampho vectors. Antibiotic selection was applied to cells 48 hr after infection using 500 μg/ml G418 (Geneticin, Life Technologies) and 1 μg/ml puromycin (InvivoGen). […]

A further assay concerns GFP-talin1. Briefly: Streptavidin pull down of BioGFP-KANK1 constructs with GFP-talin1, Western blot. In kind it is binding, mouse. The conditions noted are these: 4A mutation introduced into the construct; HEK293T cells, Figure 3A. An excerpt: BioGFP-tagged KANK1 mutants were constructed using PCR and pBioGFP-C1 vector as previously described ([van der Vaart et al., 2013]). Rescue constructs for BioGFP-tagged KANK1 were either based on the version previously described ([van der Vaart et al., 2013]) or a version obtained by PCR-based mutagenesis of the sequence […] to […]. mCherry-tagged paxillin construct was made by replacing GFP from pQC-GPXN ([Bouchet et al., 2011]) by mCherry (pmCherry-C1, Clontech). TagRFP-tagged paxillin construct was made by PCR-based amplification and cloning in pTagRFP-T-C1 (kind gift from Y. Mimori-Kiyosue, Riken Institute, Japan). HA-tagged KANK1 construct was generated by cloning KANK1 coding sequence into pMT2-SM-HA (gift of C. Hoogenraad, Utrecht University, The Netherlands). pLVX-IRES-Neo (pLVIN) vectors was constructed by cloning the IRES-neomycin resistance cassette from the pQCXIN plasmid (Clontech) into the pLVX-IRES-Puro plasmid (Clontech). […]
Streptavidin-based pull down assays of biotinylated proteins expressed using pBioGFP-C1 constructs transfected in HEK293T cells was performed and analyzed as previously described ([van der Vaart et al., 2013]). […] For RP-nanoLC-MS/MS, samples were resuspended in 10% formic acid (FA) / 5% DMSO and was analyzed using a Proxeon Easy-nLC100 (Thermo Scientific) connected to an Orbitrap Q-Exactive mass spectrometer. […]
A general note: In western blotting, separated proteins are transferred to a membrane and probed.

T1 sequence (P26039 1357-1659 S1641E): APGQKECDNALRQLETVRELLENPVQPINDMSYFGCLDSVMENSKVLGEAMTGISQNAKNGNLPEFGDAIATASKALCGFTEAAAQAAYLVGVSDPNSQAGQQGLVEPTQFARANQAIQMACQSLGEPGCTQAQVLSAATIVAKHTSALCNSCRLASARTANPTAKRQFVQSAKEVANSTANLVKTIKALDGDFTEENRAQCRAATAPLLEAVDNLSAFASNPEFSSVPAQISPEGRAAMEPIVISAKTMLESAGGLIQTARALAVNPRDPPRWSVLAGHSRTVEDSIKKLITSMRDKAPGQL
T2 sequence (P26039 1357-1659): as the sequence (P26039 1357-1659 S1641E) above, with E285S counted along it

Usually Kd stands for the constant that tells how readily two partners part at equilibrium. `CC[C@H](C)[C@H](NC(=O)[C@H](CC(=O)O)NC(=O)[C@H](CC(=O)O)NC(=O)[C@@H](NC(=O)[C@H](Cc1ccc(O)cc1)NC(=O)[C@H](CCCCN)NC(=O)[C@@H](NC(=O)[C@H](Cc1ccccc1)NC(=O)[C@H](CC(=O)O)NC(=O)[C@H](CC(C)C)NC(=O)[C@H](CC(=O)O)NC(=O)[C@H](CC(C)C)NC(=O)[C@H](CCC(N)=O)NC(=O)[C@H](Cc1ccccc1)NC(=O)CNC(=O)[C@H](Cc1ccc(O)cc1)NC(=O)[C@@H]1CCCN1C(=O)[C@@H](NC(=O)[C@H](CCC(=O)O)NC(=O)[C@@H](NC(=O)[C@H](Cc1ccccc1)NC(=O)[C@H](Cc1ccc(O)cc1)NC(=O)[C@@H]1CCCN1)C(C)C)[C@@H](C)O)C(C)C)C(C)C)C(=O)N[C@@H](CCC(N)=O)C(=O)N[C@@H](CCCCN)C(=O)NCC(=O)N[C@@H](CC(N)=O)C(=O)N[C@H](C(=O)N[C@H](C(=O)N[C@@H](CCCCN)C(=O)N[C@@H](CCCCN)C(=O)N[C@@H](CS)C(=O)O)[C@@H](C)CC)[C@@H](C)O` [KANK1(30–60)C]: the Kd on R7-R8 S1641E amounted to 2100 ± 400 nM; on Talin1 R7-R8 (1357–1659), 800 ± 100 nM.

Consider “KN domain: GFP-tagged KN domain of KANK1 (residues 30–68)”, for which, in assay [1], the “localization relative to FAs, endogenous KANK1/2 present (in words)” value is “strongly and specifically accumulated within FAs”. For the same compound, the “effect of 4A mutation on interaction with talin1 (in words)” value in the assay on GFP-talin1 is listed as “An even stronger reduction was observed”.
